In assay [1] the test system is Mycolicibacterium fortuitum. Description: Antibacterial activity against Mycobacterium ranae. It counts as functional.
Assay [2] relates to Staphylococcus aureus. The assay can be described thus: Antibacterial activity against Staphylococcus aureus. It counts as functional.

A word on the MIC: it is the least concentration at which growth counts as inhibited.

≈ marks a conversion by molar mass, not a printed value. Starred links: 1 amine or outer side, 2 acyl side, 3 side chain; linkers in the order of their positions; H or OH if unused. Non-standard residues stand in square brackets, D forms with d. Residues, ends and D or L forms follow the SMILES beside them. ξ: configuration not given here. Pro(3ξ,4ξ-(CH2)4) = O=C(O)[C@H]1NCC2CCCCC21; Oic = O=C(O)[C@@H]1C[C@@H]2CCCC[C@@H]2N1; Phe(4-F) = N[C@@H](Cc1ccc(F)cc1)C(=O)O; X1 = O=C([C@H]1C2CCCCC2CN1[*:1])[*:2]; Ethylenediamine = C(CN[*:2])N[*:1]; Tic = O=C(O)[C@@H]1Cc2ccccc2CN1; dTic = O=C(O)[C@H]1Cc2ccccc2CN1; dOrn = NCCC[C@@H](N)C(=O)O; Ahx = NCCCCCC(=O)O

As for `CC(=O)NCC(=O)N[C@@H](Cc1ccccc1)C(=O)N1Cc2ccccc2C[C@H]1C(=O)N1[C@H](C(=O)NCC(=O)N[C@@H](CCCCN)C(=O)N2Cc3ccccc3C[C@H]2C(=O)N2[C@H](C(=O)NCC(=O)N[C@@H](Cc3ccccc3)C(=O)N3Cc4ccccc4C[C@H]3C(=O)N3[C@H](C(=O)NCC(=O)N[C@@H](CCCCN)C(=O)N4Cc5ccccc5C[C@H]4C(=O)N[C@@H](CCCCN)C(=O)N[C@@H](CCCCN)C(=O)N[C@@H](CCCCN)C(=O)N[C@@H](CCCCN)C(=O)NCCN)C[C@@H]4CCCC[C@@H]43)C[C@@H]3CCCC[C@@H]32)C[C@@H]2CCCC[C@@H]21` (Ac-GF[Tic][Oic]GK[Tic][Oic]GF[Tic][Oic]GK[Tic]KKKK-Ethylenediamine), the MIC in assay [1] amounted to 10 µM (≈ 24.8 µg/mL); in assay [2], 3 µM (≈ 7.45 µg/mL).
The like results for `CC(=O)NCC(=O)N[C@@H](Cc1ccccc1)C(=O)N1Cc2ccccc2C[C@H]1C(=O)N1CC2CCCCC2[C@@H]1C(=O)NCC(=O)N[C@H](CCCN)C(=O)N1Cc2ccccc2C[C@@H]1C(=O)N1CC2CCCCC2[C@H]1C(=O)NCC(=O)N[C@H](Cc1ccccc1)C(=O)N1Cc2ccccc2C[C@@H]1C(=O)N1CC2CCCCC2[C@@H]1C(=O)NCC(=O)N[C@H](CCCN)C(=O)N1Cc2ccccc2C[C@@H]1C(=O)N[C@H](CCCN)C(=O)N[C@H](CCCN)C(=O)N[C@H](CCCN)C(=O)N[C@H](CCCN)C(N)=O` (stereo partly drawn) (Ac-GF[Tic][X1]G[dOrn][dTic][Pro(3ξ,4ξ-(CH2)4)]G[dF][dTic][X1]G[dOrn][dTic][dOrn][dOrn][dOrn][dOrn]-NH2) were, in that order, 10 µM (≈ 23.6 µg/mL) and 3 µM (≈ 7.07 µg/mL).
The corresponding values for `CC(=O)NCC(=O)N[C@@H](Cc1ccc(F)cc1)C(=O)N1Cc2ccccc2C[C@H]1C(=O)N1CC2CCCCC2[C@H]1C(=O)NCC(=O)N[C@@H](CCCCN)C(=O)N1Cc2ccccc2C[C@H]1C(=O)N1CC2CCCCC2[C@H]1C(=O)NCC(=O)N[C@@H](Cc1ccc(F)cc1)C(=O)N1Cc2ccccc2C[C@H]1C(=O)N1CC2CCCCC2[C@H]1C(=O)NCC(=O)N[C@@H](CCCCN)C(=O)N1Cc2ccccc2C[C@H]1C(=O)N[C@@H](CCCCN)C(=O)N[C@@H](CCCCN)C(=O)N[C@@H](CCCCN)C(=O)N[C@@H](CCCCN)C(N)=O` (stereo partly drawn) (Ac-G[Phe(4-F)][Tic][Pro(3ξ,4ξ-(CH2)4)]GK[Tic][Pro(3ξ,4ξ-(CH2)4)]G[Phe(4-F)][Tic][Pro(3ξ,4ξ-(CH2)4)]GK[Tic]KKKK-NH2) are 3 µM (≈ 7.43 µg/mL) and 10 µM (≈ 24.8 µg/mL).
Consider `CC(=O)NCCCCCC(=O)N[C@@H](Cc1ccccc1)C(=O)N1Cc2ccccc2C[C@H]1C(=O)N1CC2CCCCC2[C@H]1C(=O)NCCCCCC(=O)N[C@@H](CCCCN)C(=O)N1Cc2ccccc2C[C@H]1C(=O)N1CC2CCCCC2[C@H]1C(=O)NCCCCCC(=O)N[C@@H](Cc1ccccc1)C(=O)N1Cc2ccccc2C[C@H]1C(=O)N1CC2CCCCC2[C@H]1C(=O)NCCCCCC(=O)N[C@@H](CCCCN)C(=O)N1Cc2ccccc2C[C@H]1C(=O)N[C@@H](CCCCN)C(=O)N[C@@H](CCCCN)C(=O)N[C@@H](CCCCN)C(=O)N[C@@H](CCCCN)C(N)=O` (stereo partly drawn) (Ac-[Ahx]F[Tic][Pro(3ξ,4ξ-(CH2)4)][Ahx]K[Tic][Pro(3ξ,4ξ-(CH2)4)][Ahx]F[Tic][Pro(3ξ,4ξ-(CH2)4)][Ahx]K[Tic]KKKK-NH2), for which the MIC in assay [1] was 3 µM (≈ 8 µg/mL); in assay [2], 10 µM (≈ 26.7 µg/mL).

These data come from ChEMBL document CHEMBL1138365, “Application of 3D-QSAR for identification of descriptors defining bioactivity of antimicrobial peptides” (2007).
